We go through six compounds from ChEMBL document CHEMBL1140075 (J Med Chem, 2008).

Molecules are shown by their SMILES. pIC50, pKi: −log10 of the molar value. The source made the active and inactive calls. The calls are words filed in the database; no cut-off is given here. Positions of bridges follow the written chain, without caps; N, C: chain ends. Residues, ends and D or L forms follow the SMILES beside them.

Data set [1] has as its target Neuronal acetylcholine receptor subunit alpha-7 (Rattus norvegicus, UniProt Q05941).
Data set [2] concerns the target Acetylcholine-binding protein (Lymnaea stagnalis, UniProt P58154).
Data set [3] in a line: Stability assessed as loss of native globular conformation level in presence of reduced glutathione at 500 uM at 2 hrs. Type of data set: physicochemical. Particulars: solution with 500 uM reduced glutathione; read-out: Activity.
Data set [4] deals with Neuronal acetylcholine receptor subunit alpha-7 (Rattus norvegicus) (UniProt Q05941). The data set is described as follows: Activity at rat alpha7 nAChR expressed in Xenopus laevis assessed as inhibition of acetylcholine-induced current at holding potential of -80 mV up to 1 uM by two-electrode voltage clamp technique.
Sequence of Neuronal acetylcholine receptor subunit alpha-7 (Rattus norvegicus) (Q05941 whole entry): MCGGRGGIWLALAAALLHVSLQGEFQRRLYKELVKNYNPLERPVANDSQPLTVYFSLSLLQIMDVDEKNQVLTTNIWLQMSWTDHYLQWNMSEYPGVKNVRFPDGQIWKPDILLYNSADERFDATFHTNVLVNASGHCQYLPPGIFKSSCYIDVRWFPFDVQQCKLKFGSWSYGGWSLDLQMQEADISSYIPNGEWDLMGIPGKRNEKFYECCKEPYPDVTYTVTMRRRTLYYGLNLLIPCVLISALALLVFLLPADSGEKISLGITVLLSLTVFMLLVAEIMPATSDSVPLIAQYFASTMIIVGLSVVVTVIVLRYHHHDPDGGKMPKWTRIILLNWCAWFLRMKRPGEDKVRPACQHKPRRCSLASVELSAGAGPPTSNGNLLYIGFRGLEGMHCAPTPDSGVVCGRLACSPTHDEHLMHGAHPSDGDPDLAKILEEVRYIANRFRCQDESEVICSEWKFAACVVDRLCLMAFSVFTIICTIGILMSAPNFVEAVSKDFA
Data set [5] is described as follows: Stability assessed as half life of native globular conformation state in presence of reduced glutathione at 500 uM. Particulars: solution with 500 uM reduced glutathione. It is filed as physicochemical.
Data set [6] is described as follows: Stability assessed as native globular conformation level in presence of reduced glutathione at 500 uM at 24 hrs. Particulars: solution with 500 uM reduced glutathione; read-out: Stability. It is filed as physicochemical.
Data set [7] concerns the target Neuronal acetylcholine receptor subunit alpha-7 (Rattus norvegicus) (UniProt Q05941). The data set is described as follows: Activity at rat alpha7 nAChR expressed in Xenopus laevis assessed as inhibition of acetylcholine-induced current at holding potential of -80 mV up to 10 uM by two-electrode voltage clamp technique. (In general: Two-electrode voltage clamp holds a large cell at a set potential and records current.)

The next data set can be described thus: physchem. Particulars: solution with 500 uM reduced glutathione.

Sequence of Neuronal acetylcholine receptor subunit alpha-7 (Q05941 whole entry): as above
Sequence of Acetylcholine-binding protein (P58154 whole entry): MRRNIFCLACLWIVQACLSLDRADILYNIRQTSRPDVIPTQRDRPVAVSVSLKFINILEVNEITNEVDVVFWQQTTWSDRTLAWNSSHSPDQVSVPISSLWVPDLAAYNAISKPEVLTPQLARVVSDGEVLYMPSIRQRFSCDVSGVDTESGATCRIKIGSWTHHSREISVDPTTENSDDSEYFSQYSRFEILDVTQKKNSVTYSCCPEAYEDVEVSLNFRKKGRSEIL

In general, pIC50 refers to the IC50 on a negative log10 scale, so that one unit is a factor of ten. Read a low pIC50 as a high IC50. Broadly, the pKi is the Ki on a negative log10 scale, so that one unit is a factor of ten. In data set [1], `CC(C)C[C@@H]1NC(=O)[C@H](C)NC(=O)[C@@H]2CSSC[C@H](NC(=O)CN)C(=O)N[C@@H](CSSC[C@@H](C(=O)O)NC(=O)[C@H](CC(N)=O)NC1=O)C(=O)N[C@@H](CO)C(=O)N[C@@H](CC(C)C)C(=O)N1CCC[C@H]1C(=O)N1CCC[C@H]1C(=O)N2` (H-GCCSLPPCALNC-OH; disulfide 2-8, 3-12) had a pIC50 of less than 5.00. Moreover, the pKi in data set [2] was 5.10. Also, in data set [3], the degraded at 2 h is more than 80%. For the same compound, the result in data set [4] was inactive. Besides, in data set [5], the half-life is less than 0.5 h.

As for `CC(C)C[C@@H]1NC(=O)[C@H](C)NC(=O)[C@@H]2CSSC[C@H](NC(=O)CN)C(=O)N[C@@H](CSSC[C@@H](C(=O)O)NC(=O)[C@H](CC(N)=O)NC1=O)C(=O)N[C@@H](CO)C(=O)N[C@@H](CC(C)C)C(=O)N1CCC[C@H]1C(=O)N[C@@H](CCCNC(=N)N)C(=O)N2` (H-GCCSLPRCALNC-OH; disulfide 2-8, 3-12), the remaining at 24 h in data set [6] is 40%. Moreover, the outcome in data set [7] was inactive. Further, the half-life in data set [5] is 1 h.

Compound `CC(C)C[C@@H]1NC(=O)[C@H](C)NC(=O)[C@@H]2CSSC[C@H](NC(=O)CN)C(=O)N[C@@H](CSSC[C@@H](C(=O)O)NC(=O)[C@@H]3CCCN3C(=O)[C@H](CC(N)=O)NC(=O)[C@H](CC(N)=O)NC1=O)C(=O)N[C@@H](CO)C(=O)N[C@@H](CC(C)C)C(=O)N1CCC[C@H]1C(=O)N1CCC[C@H]1C(=O)N2` (H-GCCSLPPCALNNPC-OH; disulfide 2-8, 3-14) gave a pIC50 in data set [1] of 7.10. The same compound gave a pKi in data set [2] of 5.34. Besides, the degraded at 2 h in data set [3] was more than 80%. For the same compound, the half-life in data set [5] is less than 0.5 h.

Turning to `CC(C)C[C@@H]1NC(=O)[C@H](C)NC(=O)[C@@H]2CSSC[C@H](NC(=O)CN)C(=O)N[C@@H](CSSC[C@@H](C(=O)O)NC(=O)[C@H](CC(N)=O)NC(=O)[C@H](CC(N)=O)NC1=O)C(=O)N[C@@H](CO)C(=O)N[C@@H](CC(C)C)C(=O)N1CCC[C@H]1C(=O)N1CCC[C@H]1C(=O)N2` (H-GCCSLPPCALNNC-OH; disulfide 2-8, 3-13), the pIC50 in data set [1] is 6.68. The compound further had a pKi in data set [2] of 5.35. The degraded at 2 h in data set [3] is more than 80%. In addition, the half-life in data set [5] was less than 0.5 h.

In turn, `CC(C)C[C@@H]1NC(=O)[C@H](CO)NC(=O)[C@@H]2CSSC[C@@H](C(=O)O)NC(=O)[C@H](Cc3ccc(O)cc3)NC(=O)[C@H](CC(=O)O)NC(=O)[C@@H]3CCCN3C(=O)[C@H](CC(N)=O)NC(=O)[C@H](CC(N)=O)NC(=O)[C@H](C)NC(=O)[C@H](C)NC(=O)[C@H](CSSC[C@H](NC(=O)CN)C(=O)N2)NC(=O)[C@@H]2CCCN2C(=O)[C@@H]2CCCN2C1=O` (H-GCCSLPPCAANNPDYC-OH; disulfide 2-8, 3-16) showed a pIC50 in data set [1] of 6.60. The compound also gave a pKi in data set [2] of 6.91.

Regarding `CC(C)C[C@@H]1NC(=O)[C@H](C)NC(=O)[C@@H]2CSSC[C@H](NC(=O)CN)C(=O)N[C@@H](CSSC[C@@H](C(=O)O)NC(=O)[C@H](CC(=O)O)NC(=O)[C@@H]3CCCN3C(=O)[C@H](CC(N)=O)NC(=O)[C@H](CC(N)=O)NC1=O)C(=O)N[C@@H](CO)C(=O)N[C@@H](CC(C)C)C(=O)N1CCC[C@H]1C(=O)N1CCC[C@H]1C(=O)N2` (H-GCCSLPPCALNNPDC-OH; disulfide 2-8, 3-15), the pIC50 in data set [1] is 6.94. In addition, in “physchem”, the remaining at 8 h, 500 µM was 40%. In data set [2], this compound showed a pKi of 5.51. In data set [7], the outcome was inactive. Moreover, the half-life in data set [5] is 2 h.
